Toxic doses and inconclusive results are not listed. Numbered stars: 1 amine (or outer) side, 2 acyl side, 3 side chain; on linkers, the order of the positions; unused ones are H or OH. Bridge positions count the residues as written; N and C are the ends. Square brackets hold non-standard residues; d marks the D form. Peptide text beside a SMILES is read from it. I, II: the chains in the order shown. Actinocin(9to1) = Cc1c2oc3c(C)ccc(C(=O)[*:1])c3nc-2c(C(=O)[*:2])c(N)c1=O; NMeV = CN[CH](C(=O)O)C(C)C; Sar = CNCC(=O)O
Test system: L1210 leukemia ip in BDF1 mice, survival T/C
Assay: NCI In Vivo Anticancer Drug Screen. Data for tumor model L1210 Leukemia (intraperitoneal) in B6D2F1 (BDF1) mice
Conditions: higher = longer survival
Method in brief: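 Each compound was tested against a transplantable tumor grown in mice. The endpoint was survival, with treated animals benchmarked against vehicle controls as a simple ratio.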

[1] = endpoint: mean survival time, dose: 75.0 mg/kg/injection, schedule: Q01DX001 (ip), vehicle: saline
[2] = endpoint: mean survival time, dose: 100.0 mg/kg/injection, schedule: Q01DX001 (ip), vehicle: Klucel (hydroxypropylcellulose) (HPC)
[3] = endpoint: mean survival time, dose: 100.0 mg/kg/injection, schedule: Q01DX001 (ip), vehicle: saline
[4] = endpoint: mean survival time, dose: 200.0 mg/kg/injection, schedule: Q01DX001 (ip), vehicle: saline
[5] = endpoint: mean survival time, dose: 75.0 mg/kg/injection, schedule: Q01DX001 (ip), vehicle: other
[6] = endpoint: mean survival time, dose: 150.0 mg/kg/injection, schedule: Q01DX001 (ip), vehicle: other
[7] = endpoint: mean survival time, dose: 100.0 mg/kg/injection, schedule: Q04DX003 (ip), vehicle: saline

CCCCSc1nc(NCC)nc(NCC)n1
T/C (endpoint: mean survival time, dose: 100.0 mg/kg/injection, schedule: Q04DX002 (sc), vehicle: olive oil, sesame oil, peanut oil): 102 % of control | T/C (endpoint: mean survival time, dose: 200.0 mg/kg/injection, schedule: Q04DX002 (sc), vehicle: olive oil, sesame oil, peanut oil): 105 % of control | T/C (endpoint: mean survival time, dose: 400.0 mg/kg/injection, schedule: Q04DX002 (sc), vehicle: olive oil, sesame oil, peanut oil): 115 % of control

CCOC(=O)c1ccc(NC(=O)Oc2cc(C)c(Cl)c(C)c2)cc1
T/C (endpoint: mean survival time, dose: 100.0 mg/kg/injection, schedule: Q01DX009 (ip), vehicle: Klucel (hydroxypropylcellulose) (HPC)): 95 % of control | T/C (endpoint: mean survival time, dose: 200.0 mg/kg/injection, schedule: Q01DX009 (ip), vehicle: Klucel (hydroxypropylcellulose) (HPC)): 90 % of control | T/C (endpoint: mean survival time, dose: 400.0 mg/kg/injection, schedule: Q01DX009 (ip), vehicle: Klucel (hydroxypropylcellulose) (HPC)): 96 % of control

Cc1c2oc3c(C)ccc(C(=O)NC4C(=O)NC(C(C)C)C(=O)N5CCCC5C(=O)N(C)CC(=O)N(C)C(C(C)C)C(=O)OC4C)c3nc-2c(C(=O)NC2C(=O)NC(C(C)C)C(=O)N3CCCC3C(=O)N(C)CC(=O)N(C)C(C(C)C)C(=O)OC2C)c(N)c1=O (configuration not stated) (I: TVP[Sar][NMeV] / II: TVP[Sar][NMeV]; ester I:1-I:C, II:1-II:C; linker I:N-II:N via Actinocin(9to1); configuration not given here)
T/C (endpoint: mean survival time, dose: 0.05 mg/kg/injection, schedule: Q01DX009 (ip), vehicle: water): 117 % of control | T/C (endpoint: mean survival time, dose: 0.1 mg/kg/injection, schedule: Q01DX009 (ip), vehicle: water): 106 % of control | T/C (endpoint: mean survival time, dose: 0.2 mg/kg/injection, schedule: Q01DX009 (ip), vehicle: water): 120 % of control | T/C (endpoint: mean survival time, dose: 0.3 mg/kg/injection, schedule: Q04DX003 (ip), vehicle: water): 124 % of control | T/C (endpoint: mean survival time, dose: 0.4 mg/kg/injection, schedule: Q01DX009 (ip), vehicle: water): 93 % of control | T/C (endpoint: mean survival time, dose: 1.2 mg/kg/injection, schedule: Q04DX003 (ip), vehicle: water): 110 % of control | T/C (endpoint: mean survival time, dose: 1.8 mg/kg/injection, schedule: Q04DX003 (ip), vehicle: water): 91 % of control

Cc1cc(C)c(C(=O)OC(c2ccccc2)C(C)c2ccccc2)c(C)c1 (configuration not stated)
T/C [1]: 94 % of control | T/C (endpoint: mean survival time, dose: 150.0 mg/kg/injection, schedule: Q01DX001 (ip), vehicle: saline): 94 % of control | T/C (endpoint: mean survival time, dose: 300.0 mg/kg/injection, schedule: Q01DX001 (ip), vehicle: saline): 89 % of control

c1ccc2[nH]c(C(=C(c3nc4ccccc4[nH]3)c3nc4ccccc4[nH]3)c3nc4ccccc4[nH]3)nc2c1
T/C [2]: 87 % of control | T/C (endpoint: mean survival time, dose: 100.0 mg/kg/injection, schedule: Q04DX003 (ip), vehicle: Klucel (hydroxypropylcellulose) (HPC)): 97 % of control | T/C (endpoint: mean survival time, dose: 200.0 mg/kg/injection, schedule: Q01DX001 (ip), vehicle: Klucel (hydroxypropylcellulose) (HPC)): 87 % of control | T/C (endpoint: mean survival time, dose: 200.0 mg/kg/injection, schedule: Q04DX003 (ip), vehicle: Klucel (hydroxypropylcellulose) (HPC)): 112 % of control | T/C (endpoint: mean survival time, dose: 400.0 mg/kg/injection, schedule: Q04DX003 (ip), vehicle: Klucel (hydroxypropylcellulose) (HPC)): 90 % of control

CC(N)C12CC3CC(CC(C3)C1)C2 (configuration not stated)
T/C (endpoint: mean survival time, dose: 75.0 mg/kg/injection, schedule: Q01DX009 (ip), vehicle: saline): 94 % of control

O=Nc1ccc(-[n+]2ccccc2)c([N+](=O)[O-])c1
T/C [1]: 98 % of control

CCCCCCCCCCOP(N)(=O)OCCCCCCCCCC
T/C (endpoint: mean survival time, dose: 25.0 mg/kg/injection, schedule: Q01DX009 (ip), vehicle: carboxymethylcellulose (CMC)): 98 % of control | T/C (endpoint: mean survival time, dose: 50.0 mg/kg/injection, schedule: Q01DX009 (ip), vehicle: carboxymethylcellulose (CMC)): 104 % of control | T/C (endpoint: mean survival time, dose: 50.0 mg/kg/injection, schedule: Q04DX003 (ip), vehicle: carboxymethylcellulose (CMC)): 89 % of control | T/C (endpoint: mean survival time, dose: 100.0 mg/kg/injection, schedule: Q01DX009 (ip), vehicle: carboxymethylcellulose (CMC)): 93 % of control | T/C (endpoint: mean survival time, dose: 100.0 mg/kg/injection, schedule: Q04DX003 (ip), vehicle: carboxymethylcellulose (CMC)): 94 % of control | T/C (endpoint: mean survival time, dose: 225.0 mg/kg/injection, schedule: Q01DX009 (ip), vehicle: carboxymethylcellulose (CMC)): 104 % of control

Cc1ccc(S(=O)(=O)CCN2CCN(C)CC2)cc1
T/C [3]: 100 % of control | T/C [4]: 94 % of control

CC(=O)OC1CC2C(CCC3(C)C(C(C)=O)CCC23)C2(C)CCC(O)C=C12 (configuration not stated)
T/C [5]: 101 % of control | T/C [6]: 98 % of control | T/C (endpoint: mean survival time, dose: 300.0 mg/kg/injection, schedule: Q01DX001 (ip), vehicle: other): 103 % of control

Cc1ccccc1NC(=O)C1CCCC1=O (configuration not stated)
T/C (endpoint: mean survival time, dose: 50.0 mg/kg/injection, schedule: Q01DX001 (ip), vehicle: saline): 101 % of control | T/C [3]: 103 % of control | T/C (endpoint: mean survival time, dose: 400.0 mg/kg/injection, schedule: Q01DX001 (ip), vehicle: saline): 109 % of control

Cc1nc(N)[nH]c(=O)c1CCCNC(=O)c1cccc([N+](=O)[O-])c1
T/C (endpoint: mean survival time, dose: 50.0 mg/kg/injection, schedule: Q01DX001 (ip), vehicle: Klucel (hydroxypropylcellulose) (HPC)): 108 % of control | T/C [2]: 114 % of control

CN(Cc1cnc2nc(N)nc(N)c2n1)c1c(F)cc(C(=O)NC(CCC(=O)O)C(=O)O)cc1F (configuration not stated)
T/C (endpoint: mean survival time, dose: 1.5 mg/kg/injection, schedule: Q01DX009 (ip), vehicle: sodium bicarbonate): 114 % of control | T/C (endpoint: mean survival time, dose: 12.0 mg/kg/injection, schedule: Q01DX009 (ip), vehicle: sodium bicarbonate): 154 % of control

CCCCCCCCCCCCOP(N)(=O)OCCCCCCCCCCCC
T/C (endpoint: mean survival time, dose: 50.0 mg/kg/injection, schedule: Q01DX009 (ip), vehicle: saline): 90 % of control | T/C (endpoint: mean survival time, dose: 100.0 mg/kg/injection, schedule: Q01DX009 (ip), vehicle: saline): 88 % of control | T/C [7]: 94 % of control | T/C (endpoint: mean survival time, dose: 200.0 mg/kg/injection, schedule: Q01DX009 (ip), vehicle: saline): 88 % of control | T/C (endpoint: mean survival time, dose: 200.0 mg/kg/injection, schedule: Q04DX003 (ip), vehicle: saline): 90 % of control

CC(Cc1cc(C)nc(NC#N)n1)=Nc1ccccc1
T/C (endpoint: mean survival time, dose: 100.0 mg/kg/injection, schedule: Q04DX002 (ip), vehicle: Klucel (hydroxypropylcellulose) (HPC)): 100 % of control | T/C (endpoint: mean survival time, dose: 200.0 mg/kg/injection, schedule: Q04DX002 (ip), vehicle: Klucel (hydroxypropylcellulose) (HPC)): 92 % of control | T/C (endpoint: mean survival time, dose: 400.0 mg/kg/injection, schedule: Q04DX002 (ip), vehicle: Klucel (hydroxypropylcellulose) (HPC)): 100 % of control

Oc1ccccc1C=Nc1ccccc1O
T/C (endpoint: mean survival time, dose: 33.0 mg/kg/injection, schedule: Q04DX002 (ip), vehicle: gum acacia): 103 % of control | T/C (endpoint: mean survival time, dose: 50.0 mg/kg/injection, schedule: Q04DX002 (ip), vehicle: gum acacia): 100 % of control | T/C (endpoint: mean survival time, dose: 75.0 mg/kg/injection, schedule: Q04DX002 (ip), vehicle: gum acacia): 100 % of control | T/C (endpoint: mean survival time, dose: 100.0 mg/kg/injection, schedule: Q01DX009 (ip), vehicle: gum acacia): 89 % of control | T/C (endpoint: mean survival time, dose: 100.0 mg/kg/injection, schedule: Q04DX002 (ip), vehicle: gum acacia): 104 % of control | T/C (endpoint: mean survival time, dose: 200.0 mg/kg/injection, schedule: Q01DX009 (ip), vehicle: gum acacia): 105 % of control | T/C (endpoint: mean survival time, dose: 200.0 mg/kg/injection, schedule: Q04DX002 (ip), vehicle: gum acacia): 107 % of control | T/C (endpoint: mean survival time, dose: 400.0 mg/kg/injection, schedule: Q01DX009 (ip), vehicle: gum acacia): 89 % of control

Nc1nc(N)c(-c2ccc(Cl)c(Cl)c2)c(CO)n1
T/C (endpoint: mean survival time, dose: 100.0 mg/kg/injection, schedule: Q04DX003 (ip), vehicle: saline with Tween-80): 98 % of control | T/C (endpoint: mean survival time, dose: 200.0 mg/kg/injection, schedule: Q04DX003 (ip), vehicle: saline with Tween-80): 107 % of control | T/C (endpoint: mean survival time, dose: 400.0 mg/kg/injection, schedule: Q04DX003 (ip), vehicle: saline with Tween-80): 117 % of control

NC(Cc1cc(I)c(Oc2cc(I)c(O)c(I)c2)c(I)c1)C(=O)O (configuration not stated)
T/C (endpoint: median survival time, dose: 0.63 mg/kg/injection, schedule: Q01DX009 (ip), vehicle: saline): 98 % of control | T/C (endpoint: median survival time, dose: 2.5 mg/kg/injection, schedule: Q01DX009 (ip), vehicle: saline): 92 % of control | T/C (endpoint: median survival time, dose: 10.0 mg/kg/injection, schedule: Q01DX009 (ip), vehicle: saline): 88 % of control | T/C (endpoint: median survival time, dose: 40.0 mg/kg/injection, schedule: Q01DX009 (ip), vehicle: saline): 93 % of control

Cc1ccc(-c2cc(-c3ccccc3)n(-c3ccccc3)n2)cc1
T/C (endpoint: mean survival time, dose: 100.0 mg/kg/injection, schedule: Q01DX009 (ip), vehicle: other): 103 % of control | T/C (endpoint: mean survival time, dose: 200.0 mg/kg/injection, schedule: Q01DX009 (ip), vehicle: other): 96 % of control | T/C (endpoint: mean survival time, dose: 400.0 mg/kg/injection, schedule: Q01DX009 (ip), vehicle: other): 95 % of control

COC(=O)C1=C(C(=O)OC)C2OC1C(COC(C)=O)=C2COC(C)=O
T/C [7]: 93 % of control

O=CNc1ccccc1Cc1ccccc1
T/C [3]: 101 % of control | T/C [4]: 107 % of control

C=CCONC(=O)Oc1ccccc1
T/C [5]: 106 % of control | T/C [6]: 97 % of control

Source: PubChem BioAssay AID248 (DTP/NCI, 2004)
